According to publication PMC11078990, “Identification and characterization of small molecule inhibitors of the LINE-1 retrotransposon endonuclease” (Nature Communications, 2024):
Several values for one entry are separate records, joined by “and”; a condition that tells them apart may be missing. Identical values can stand only once. Like-named read-outs stand apart in the source and are kept apart here.

Columns and labels:
[1] = tested on: senescent LF1 human diploid fibroblasts (IFN-I and Aging gene sets); assay: RNA-seq / Gene Set Enrichment Analysis of senescent cultures; format: cell-based; conditions: senescent cultures treated 1 month beginning at 3 months senescence
L1 retrotransposition = assay: HeLa dual-luciferase L1 retrotransposition assay; format: cell-based, human
[2] = tested on: senescent LF1 human diploid fibroblasts (IL6, IL1β, CCL2, IFNα, MMP3); assay: RT-qPCR of inflammatory markers in replicatively senescent fibroblasts; format: cell-based
[3] = tested on: DNA fragmentation (comet tail length) in HeLa Tet-On cells expressing EN domain; assay: Neutral comet assay, EN domain-only constructs; format: cell-based, human
[4] = target: L1 EN (LINE-1 retrotransposon endonuclease domain) (Homo sapiens, UniProt O00370, N5T); assay: Fluorescent oligonucleotide EN nicking activity assay; format: biochemical
Sequence of L1 EN (LINE-1 retrotransposon endonuclease domain) (O00370 1-239 N5T): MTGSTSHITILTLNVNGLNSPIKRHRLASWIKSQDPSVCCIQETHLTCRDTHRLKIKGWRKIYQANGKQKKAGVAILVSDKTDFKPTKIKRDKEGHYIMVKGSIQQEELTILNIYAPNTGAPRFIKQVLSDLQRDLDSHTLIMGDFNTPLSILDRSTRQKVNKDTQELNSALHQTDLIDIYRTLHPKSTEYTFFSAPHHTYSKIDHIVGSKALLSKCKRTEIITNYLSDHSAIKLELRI

APE1 = target: T1, APE1 (Homo sapiens, UniProt P27695); assay: APE1 fluorescent oligonucleotide activity assay (abasic site substrate); format: biochemical; conditions: for activity at 25 µM: read-out: APE1 activity (%)
T1 construct: purchased New England Biolabs (NEB) M0282S

HeLa Tet-On cells = conditions: human
[5] = tested on: substrate oligonucleotide used in the EN activity assay; format: binding; parameters: key to Binding Detected? (Y/N): Binding Detected? (Y/N); Binding Detected? (Y/N)
[6] = tested on: L1-induced DNA damage in HeLa Tet-On cells (full-length L1); assay: γ-H2AX immunofluorescence assay, full-length L1 constructs; format: cell-based, human
[7] = read-out: EN activity, percent of no inhibitor control

Nc1ccn([C@@H]2CS[C@H](CO)O2)c(=O)n1 [3TC, Lamivudine, reference compound]
Expression of IFN-I gene set and aging gene set (RNA-seq, GSEA) [1]: decreased expression | Luciferase (retrotransposition), average (L1 retrotransposition; Figure 4a Graph 1, 10 μM, 0 μM average 9.554): 1.753 | Luciferase (retrotransposition), replicates (L1 retrotransposition; Figure 4a Graph 1, 10 μM, Replicates 1-4, 0 μM average 9.554): 1.525 and 1.282 and 1.336 and 2.868 | Luciferase (retrotransposition), average (L1 retrotransposition; Figure 4a Graph 2, 10 μM, 0 μM average 9.679): 1.648 | Luciferase (retrotransposition), replicates (L1 retrotransposition; Figure 4a Graph 2, 10 μM, Replicates 1-4, 0 μM average 9.679): 2.547 and 1.556 and 1.337 and 1.153 | Luciferase (retrotransposition), average (L1 retrotransposition; Figure 4a Graph 3, 10μM, 0μM average 17.91): 3.723 | Luciferase (retrotransposition), replicates (L1 retrotransposition; Figure 4a Graph 3, 10μM, Replicates 1-4, 0μM average 17.91): 3.272 and 3.5538 and 3.891 and 4.176 | Luciferase (retrotransposition), average (L1 retrotransposition; Figure 4a Graph 4, 10μM, 0μM average 3.426): 0.6208 | Luciferase (retrotransposition), replicates (L1 retrotransposition; Figure 4a Graph 4, 10μM, Replicates 1-4, 0μM average 3.426): 0.3413 and 0.6639 and 1.079 and 0.3984 | Luciferase (retrotransposition), average (L1 retrotransposition; Figure 4a Graph 5, 10μM, 0μM average 4.537): 0.4847 | Luciferase (retrotransposition), replicates (L1 retrotransposition; Figure 4a Graph 5, 10μM, Replicates 1-4, 0μM average 4.537): 0.5984 and 0.4472 and 0.3986 and 0.4945 | MMP3 RT-qPCR, average (EP = 1) ([2]; 10 μM, senescent cells, SEN control 5.499, 3 replicates): 1.892 | IL1β RT-qPCR, average (EP = 1) ([2]; 10 μM, senescent cells, SEN control 8.256, 3 replicates): 10.61 | CCL2 RT-qPCR, average (EP = 1) ([2]; 10 μM, senescent cells, SEN control 8.589, 3 replicates): 4.199 | IFNα RT-qPCR, average (EP = 1) ([2]; 10 μM, senescent cells, SEN control 18.65, 3 replicates): 15.66 | IL6 RT-qPCR, average (EP = 1) ([2]; 10 μM, senescent cells, SEN control 22.45, 3 replicates): 13.65

C/C(C[C@H](c1ccccc1)c1c(O)c2ccccc2oc1=O)=N\Nc1ccc([N+](=O)[O-])cc1[N+](=O)[O-] [AD3]
Nuclei comet tail length, average (WT = 1) [3]: 0.568 | EN activity, percent of no inhibitor control ([4]; 1 µM): 108.117% and 78.9256% and 93.3444% | EN activity, percent of no inhibitor control ([4]; 5 µM): 93.5701% and 96.3453% | EN activity, percent of no inhibitor control ([4]; 10 µM): 99.3729% | EN activity, percent of no inhibitor control ([4]; 25 µM): 99.0637% and 102.756% | EN activity, percent of no inhibitor control ([4]; 50 µM): 87.9685% and 80.8738% and 62.1552% | EN activity, percent of no inhibitor control ([4]; 100 µM): 53.1232% and 37.4643% and 59.5468% | EN activity, percent of no inhibitor control ([4]; 250 µM): 26.1232% and 25.9631% | EN activity, percent of no inhibitor control ([4]; 500 µM): 1.104% and 2.0558% and 4.103% | EN activity, percent of no inhibitor control ([4]; 1000 µM): 0.8695% and 0.8159% | remaining activity at 5 µM [4, 7]: 89.6% | remaining activity at 10 µM [4, 7]: 99.4% | remaining activity at 25 µM [4, 7]: 95.7% | remaining activity at 250 µM [4, 7]: 25.7% | remaining activity at 1000 µM [4, 7]: 1.63% | Luciferase (retrotransposition), average (L1 retrotransposition): 1.378 | Luciferase (retrotransposition), replicates (L1 retrotransposition): 0.9116 and 1.591 and 1.485 and 1.524 | IL1β RT-qPCR, average (EP = 1) [2]: 4.703 | IL6 RT-qPCR, average (EP = 1) [2]: 6.462 | Inhibition of inflammation in senescent cells [2]: showed efficacy | MMP3 RT-qPCR, average (EP = 1) [2]: 2.136 | APE1 percent activity, Replicate 1 (APE1): 92.838% | APE1 percent activity, Replicate 3 (APE1): 104.006% | APE1 percent activity, average (APE1): 103.516% | Percent APE1 activity, average (APE1): 95.58% | Percent APE1 activity, replicates (APE1): 101.896% and 94.978% and 89.8705% | activity at 25 µM (APE1): 104 ± 10.4% | PrestoBlue (viability), average (HeLa Tet-On cells): 15.41 | Binding Detected? (Y/N) [5]: N | Inhibition of DNA damage, full-length L1 experiments [6]: best inhibition

Nn1cnn2c(SCC(=O)Nc3nnc(SCC(=O)Nc4ccc(S(N)(=O)=O)cc4)s3)nnc12 [AD29]
Nuclei comet tail length, average (WT = 1) ([3]; 50 μM inhibitor, EN domain-only construct, neutral comet assay, normalised to WT): 0.4772 | EN activity, percent of no inhibitor control ([4]; [Inhibitor] 0.5 μM, technical replicates 1-3, Fig. 2b source data, 0.5 µM): 96.7352% and 105.013% | remaining activity at 0.5 µM ([4]; [Inhibitor] 0.5 μM, technical replicates 1-3, Fig. 2b source data, read-out: EN activity, percent of no inhibitor control): 97.3% | EN activity, percent of no inhibitor control ([4]; [Inhibitor] 5 μM, technical replicates 1-3, Fig. 2b source data, 5 µM): 89.8647% and 119.947% and 95.1949% | EN activity, percent of no inhibitor control ([4]; [Inhibitor] 10 μM, technical replicates 1-3, Fig. 2b source data, 10 µM): 90.2289% and 93.2039% | remaining activity at 10 µM ([4]; [Inhibitor] 10 μM, technical replicates 1-3, Fig. 2b source data, read-out: EN activity, percent of no inhibitor control): 89.2% | EN activity, percent of no inhibitor control ([4]; [Inhibitor] 25 μM, technical replicates 1-3, Fig. 2b source data, 25 µM): 63.7726% and 70.2623% | remaining activity at 25 µM ([4]; [Inhibitor] 25 μM, technical replicates 1-3, Fig. 2b source data, read-out: EN activity, percent of no inhibitor control): 64.2% | EN activity, percent of no inhibitor control ([4]; [Inhibitor] 50 μM, technical replicates 1-3, Fig. 2b source data, 50 µM): 34.0986% and 27.5313% | remaining activity at 50 µM ([4]; [Inhibitor] 50 μM, technical replicates 1-3, Fig. 2b source data, read-out: EN activity, percent of no inhibitor control): 24.6% | EN activity, percent of no inhibitor control ([4]; [Inhibitor] 100 μM, technical replicates 1-3, Fig. 2b source data, 100 µM): 8.595% and 8.689% | remaining activity at 100 µM ([4]; [Inhibitor] 100 μM, technical replicates 1-3, Fig. 2b source data, read-out: EN activity, percent of no inhibitor control): 5.53% | EN activity, percent of no inhibitor control ([4]; [Inhibitor] 250 μM, technical replicates 1-3, Fig. 2b source data, 250 µM): 1.937% and 2.743% | remaining activity at 250 µM ([4]; [Inhibitor] 250 μM, technical replicates 1-3, Fig. 2b source data, read-out: EN activity, percent of no inhibitor control): 2.22% | EN activity, percent of no inhibitor control ([4]; [Inhibitor] 500 μM, technical replicates 1-3, Fig. 2b source data, 500 µM): 1.591% and 1.804% and 0.7296% | Luciferase (retrotransposition), average (L1 retrotransposition; Figure 4a Graph 4, 50μM, 0μM average 3.426): 2.638 | Luciferase (retrotransposition), replicates (L1 retrotransposition; Figure 4a Graph 4, 50μM, Replicates 1-4, 0μM average 3.426): 2.47 and 2.591 and 2.484 and 3.007 | APE1 percent activity, Replicate 1 (APE1; compound at 25 μM, Replicate 1): 83.829% | APE1 percent activity, Replicate 2 (APE1; compound at 25 μM, Replicate 2): 79.0708% | APE1 percent activity, Replicate 3 (APE1; compound at 25 μM, Replicate 3): 80.6497% | APE1 percent activity, average (APE1; compound at 25 μM, average of 3 replicates): 81.1831% | activity at 25 µM (APE1; inhibitors at 25 μM, relative to 0 μM inhibitor control, mean ± s.d., 3 independent experiments): 81.2 ± 2.4% | PrestoBlue (viability), average (HeLa Tet-On cells; 48 h, 50 μM): 15.21 | Binding Detected? (Y/N) [5]: N

O=C(NCCCCCCNC(=O)Nc1cccc([N+](=O)[O-])c1)Nc1cccc([N+](=O)[O-])c1 [AD32]
Nuclei comet tail length, average (WT = 1) [3]: 0.6103 | EN activity, percent of no inhibitor control ([4]; 1 µM): 89.1778% and 95.2749% | EN activity, percent of no inhibitor control ([4]; 5 µM): 106.426% and 105.894% | EN activity, percent of no inhibitor control ([4]; 20 µM): 107.498% and 97.7763% and 80.1287% | EN activity, percent of no inhibitor control ([4]; 50 µM): 115.028% and 130.021% and 99.6138% | EN activity, percent of no inhibitor control ([4]; 100 µM): 108.576% and 99.1955% | EN activity, percent of no inhibitor control ([4]; 250 µM): 76.4578% and 67.7464% | EN activity, percent of no inhibitor control ([4]; 500 µM): 42.369% and 27.0684% | EN activity, percent of no inhibitor control ([4]; 750 µM): 20.3358% and 21.9713% | EN activity, percent of no inhibitor control ([4]; 1000 µM): 5.092% and 3.166% and 2.499% | remaining activity at 1 µM [4, 7]: 93.7% | remaining activity at 5 µM [4, 7]: 103% | remaining activity at 100 µM [4, 7]: 106% | remaining activity at 250 µM [4, 7]: 71.9% | remaining activity at 500 µM [4, 7]: 46.5% | remaining activity at 750 µM [4, 7]: 20.5% | Effect on L1 retrotransposition (L1 retrotransposition): some activity in the retrotransposition assay | Luciferase (retrotransposition), average (L1 retrotransposition): 1.01 | Luciferase (retrotransposition), replicates (L1 retrotransposition): 1.2931 and 0.8621 and 0.8883 and 0.9964 | APE1 percent activity, Replicate 1 (APE1): 105.807% | APE1 percent activity, Replicate 2 (APE1): 106.706% | APE1 percent activity, Replicate 3 (APE1): 111.118% | APE1 percent activity, average (APE1): 107.877% | Percent APE1 activity, average (APE1): 120.4% | Percent APE1 activity, replicates (APE1): 115.512% and 123.038% and 122.705% | activity at 25 µM (APE1): 108 ± 2.8% | PrestoBlue (viability), average (HeLa Tet-On cells): 14.98 | Binding Detected? (Y/N) [5]: N
